# Reference: publication PMC12057046, “Elucidation of short linear motif-based interactions of the MIT and rhodanese domains of the ubiquitin-specific protease 8” (Biology Direct, 2025)
# Tested on: USP8 MIT domain
# Assay: Peptide-phage display-based deep mutational scanning (DMS), USP8 MIT domain
# Type: binding, human
# Conditions: bait USP8_MIT__P40818_1_142, sheet S3.B_ProP-PD_pairs
# Procedure: The residues of these 16 amino acid-long wild-type peptides were substituted to all natural amino acid residues, except cysteine, in all positions (Supplementary Table S2A). The designed peptide sequences were reverse-translated to oligonucleotides optimized to the codon usage of E. coli. The required flanking regions (5´[…] and 3´[…]) were added for library construction. The library was generated as previously described.
# Four rounds of phage selections were carried out using the second generation human disorderome library or the constructed deep mutational scanning library. At least three individual replicates were used for each bait protein. 10 µg of GST-tagged proteins or GST control (diluted in PBS from the stock of proteins kept in the purification elution buffer) were immobilized in 100 µL PBS on a 96-well MaxiSorp (Nunc) plate overnight at 4 °C. The plates were incubated with blocking buffer (with 0.5% BSA in PBS) for 1 h at 4 °C followed by washing with 0.05% Tween 20 in PBS four times. The naïve phage library (10^11 CFU) was diluted in 1/5th volume PEG/NaCl (20% PEG-8000, 0.4 M NaCl) and 1X PBS, incubated on ice for 10 min and centrifuged at 10,000 [drawing 3] g for 10 min. The pellet was resuspended in the volume of PBS (100 µL/ well). The GST-coated control plate was incubated with 100 µL library per well in PBS for 1 h at 4 °C to remove non-specific binders. The supernatant was transferred to the target wells and incubated for 2 h at 4 °C. The wells were washed five times with 0.05% Tween 20 in PBS and the bound phages were eluted with 100 µL per well log-phase E. coli OmniMAX by incubating at 37° C while shaking. After 30 min, M13KO7 helper phages were added and incubated for an additional 45 min. The bacterial cultures were transferred to 1 mL 2YT supplemented with 100 µg/mL carbenicillin, 30 µg/mL kanamycin and 0.3 mM IPTG and grew overnight at 37 °C while shaking. The following day the cultures were centrifuged for 10 min at 2,000 [drawing 4] g, 4 °C. 1/10th volume of 10 [drawing 5] PBS was added to adjust the pH and heated at 65 °C for 10 min. The phage pools from each round were used as in-phages for the next round of selections.
# The samples were prepared for NGS as previously described. Peptide-coding regions of the enriched phage pools were amplified and barcoded using Phusion High-Fidelity PCR Master Mix (Thermo Fisher) for 22 cycles and confirmed by 2% agarose gel electrophoresis. The PCR products were normalized with 25 µL Mag-bind Total Pure NGS beads (Omega Biotek) and 10 µL of each eluted sample (Qiagen Elution Buffer) was pooled and cleaned-up with a PCR purification kit (Qiagen). The PCR product was confirmed by 2% agarose electrophoresis and the band was extracted with QIAquick Gel extraction Kit (Qiagen) and eluted with 30 µL TE buffer. The dsDNA was quantified using QuantiT PicoGreen dsDNA Assay Kit (Thermo Fisher) and sent for NGS (Illumina MiSeq v3, 1 × 150 bp read setup, 20% PhiX, NGI SciLifeLab facility, Sweden). The NGS data were demultiplexed, adapter regions were trimmed and sequences with an average quality of at least 20 were translated to peptide sequences. The NGS data were analysed using custom Python scripts. The total read NGS counts for each selection experiment of each peptide sequence were compiled and annotated in PepTools (https://slim.icr.ac.uk/tools/peptools/). Since ProP-PD is in essence a competition assay, the possibility of the input phage library influencing the selection outcome was explored. For this, the Pearson correlation coefficient, p-value and coefficient of determination were calculated for all peptide NGS count fractions in the library coverage vs. in the selections results (Supplementary Fig. S7; Supplementary Table S2B; Supplementary Table S3B; Supplementary Table S7B). Pearson correlation coefficient and p-value were calculated using Python’s SciPy library. […]
# [1] = EFCAB12 (Q6NXP0) 2-17, pair of mutant with wild-type wt_00016 (MDDDYEAYHSLFLSLL)
# [2] = ratio within the wild-type/mutant pair, larger over smaller averaged fraction (direction from fraction_wt and fraction_mut)
sequence,measurement,setting,value
MDDDYYAYHSLFLSLL [mut_04428],hit_pair_ratio,[1],1.20
MDDEYEAYHSLFLSLL [mut_04376],hit_pair_ratio,[1],3.28
MDDFYEAYHSLFLSLL [mut_04377],hit_pair_ratio,[1],337.92
MDDGYEAYHSLFLSLL [mut_04378],hit_pair_ratio,[1],3.46
MDDHYEAYHSLFLSLL [mut_04379],hit_pair_ratio,[1],28.27
MDDKYEAYHSLFLSLL [mut_04381],hit_pair_ratio,[1],84.82
MDDLYEAYHSLFLSLL [mut_04382],hit_pair_ratio,[1],337.92
MDDNYEAYHSLFLSLL [mut_04384],hit_pair_ratio,[1],33.79
MDDPYEAYHSLFLSLL [mut_04385],hit_pair_ratio,[1],4.13
MDDQYEAYHSLFLSLL [mut_04386],hit_pair_ratio,[1],42.28
MDDRYEAYHSLFLSLL [mut_04387],hit_pair_ratio,[1],84.48
MDDSYEAYHSLFLSLL [mut_04388],hit_pair_ratio,[1],4.76
MDDTYEAYHSLFLSLL [mut_04389],hit_pair_ratio,[1],15.92
MDDWYEAYHSLFLSLL [mut_04391],hit_pair_ratio,[1],51.65
MDDYYEAYHSLFLSLL [mut_04392],hit_pair_ratio,[1],56.39
MDEDYEAYHSLFLSLL [mut_04358],hit_pair_ratio,[1],3.08
MDFDYEAYHSLFLSLL [mut_04359],hit_pair_ratio,[1],112.94
MDGDYEAYHSLFLSLL [mut_04360],hit_pair_ratio,[1],5.59
MDHDYEAYHSLFLSLL [mut_04361],hit_pair_ratio,[1],6.06
MDIDYEAYHSLFLSLL [mut_04362],hit_pair_ratio,[1],337.92
MDLDYEAYHSLFLSLL [mut_04364],hit_pair_ratio,[1],2.51
MDMDYEAYHSLFLSLL [mut_04365],hit_pair_ratio,[1],84.82
MDNDYEAYHSLFLSLL [mut_04366],hit_pair_ratio,[1],19.88
MDPDYEAYHSLFLSLL [mut_04367],hit_pair_ratio,[1],337.92
MDQDYEAYHSLFLSLL [mut_04368],hit_pair_ratio,[1],8.05
MDSDYEAYHSLFLSLL [mut_04370],hit_pair_ratio,[1],42.24
MDTDYEAYHSLFLSLL [mut_04371],hit_pair_ratio,[1],112.94
MDVDYEAYHSLFLSLL [mut_04372],hit_pair_ratio,[1],7.68
MDWDYEAYHSLFLSLL [mut_04373],hit_pair_ratio,[1],2.57
MDYDYEAYHSLFLSLL [mut_04374],hit_pair_ratio,[1],42.41
MEDDYEAYHSLFLSLL [mut_04340],hit_pair_ratio,[1],16.11
MEVSDIESRIAALRAA,hit_pair_ratio,[2],2.60
MFDDYEAYHSLFLSLL [mut_04341],hit_pair_ratio,[1],4.97
MGDDYEAYHSLFLSLL [mut_04342],hit_pair_ratio,[1],337.92
MHDDYEAYHSLFLSLL [mut_04343],hit_pair_ratio,[1],337.92
MIDDYEAYHSLFLSLL [mut_04344],hit_pair_ratio,[1],337.92
MKDDYEAYHSLFLSLL [mut_04345],hit_pair_ratio,[1],25.99
MLDDYEAYHSLFLSLL [mut_04346],hit_pair_ratio,[1],33.93
MMDDYEAYHSLFLSLL [mut_04347],hit_pair_ratio,[1],37.58
MNDDYEAYHSLFLSLL [mut_04348],hit_pair_ratio,[1],14.75
MPDDYEAYHSLFLSLL [mut_04349],hit_pair_ratio,[1],168.96
MQDDYEAYHSLFLSLL [mut_04350],hit_pair_ratio,[1],169.63
MRDDYEAYHSLFLSLL [mut_04351],hit_pair_ratio,[1],4.58
MSDDYEAYHSLFLSLL [mut_04352],hit_pair_ratio,[1],67.69
MVDDYEAYHSLFLSLL [mut_04354],hit_pair_ratio,[1],6.06
MYDDYEAYHSLFLSLL [mut_04356],hit_pair_ratio,[1],67.58
NDDDYEAYHSLFLSLL [mut_04330],hit_pair_ratio,[1],17.85
NEVSDIESRIAALRAA,hit_pair_ratio,[2],11.09
PDDDYEAYHSLFLSLL [mut_04331],hit_pair_ratio,[1],10.25
PEVSDIESRIAALRAA,hit_pair_ratio,[2],7.79
QDDDYEAYHSLFLSLL [mut_04332],hit_pair_ratio,[1],3.38
QEVSDIESRIAALRAA,hit_pair_ratio,[2],2.44
SDDDYEAYHSLFLSLL [mut_04334],hit_pair_ratio,[1],56.39
SDVSDIESRIAALRAA,hit_pair_ratio,[2],11.31
SEASDIESRIAALRAA,hit_pair_ratio,[2],1.11
SEESDIESRIAALRAA,hit_pair_ratio,[2],7.79
SEFSDIESRIAALRAA,hit_pair_ratio,[2],1.28
